Measurements: patent publication US20110046079A1, “Use of Proton Pump Inhibitors as Drug Delivery Adjuvants” (priority 2008, published 2011)
Where “and” joins values, the source holds several entries; their conditions need not be identical. Equal values may be shown once.

Columns and labels:
[1] = tested on: rat gastric corpus mucosa; assay: Transepithelial flux of 14C-labeled probes (mannitol, sucrose, polyethylene glycol) before and after PPI; settings: for Post-Omeorazole transmucosal flux / Pre-Omeorazole transmucosal flux: mean +/- SE, 3 experiments; for Pre-Omeorazole transmucosal flux: before 200 μM omeprazole
Protocol: In each experiment, one adult male Sprague Dawley rat was sacrificed by decapitation. The stomach was removed, flushed, and stripped of its outer serosal membrane, while being frequently moistened with chilled, unbuffered saline. Two pieces of corpus mucosa were mounted in modified Ussing chambers, with exposed tissue surface area of 1.13 cm^2. Chambers were connected to gas-lift reservoirs, with a fluid volume of 17 mL per hemichamber. The mucosal hemichamber was filled with unbuffered saline (with 17 mM glucose) and kept aerated and perfused with 100% O2 at 37° C. […] Water-jacketed reservoirs maintained chamber saline at 37° C.
KRB was adjusted to a pH of 7.3-7.4.
Unbuffered saline was gassed with 100% O2 and was used to bathe the mucosal side of the gastric mucosa.
Approximately 30 minutes after tissues were mounted in Ussing chambers, dibutyrl cyclic AMP (dB-cAMP) (Sigma, St. Louis, Mo.) was added to the serosal sides of both chambers to a concentration of 1 mM in order to stimulate acid output by the tissue.
Three experiments were performed with each PPI, examining gastric permeability to ^14C-mannitol.
Three experiments were performed at each omeprazole concentration.

[2] = tested on: rat gastric corpus mucosa; assay: Transepithelial drug flux studies (3H-digoxin, 14C-phenytoin, mucosal to serosal) before and after omeprazole or DMSO; assay type: in vitro ADME; settings: 0.1 mM probe
Protocol: Sprague Dawley male rats weighing approximately 400 grams were sacrificed by decapitation and the stomach was quickly removed, cut along the greater curvature, and flushed of luminal contents. The serosal membrane was then stripped from the corpus region and two equal sized pieces of corpus mucosa were mounted in two separate Ussing chambers with exposed tissue areas of 1.13 cm^2. Chambers were connected to 15 mL gas-lift reservoirs filled with un-buffered saline aerated with 100% O2 and bicarbonate-buffered saline aerated with 95% O2/5% CO2 on the mucosal and serosal sides, respectively. Saline temperature was held constant at 37° C. by a jacketed water bath surrounding the reservoirs. 30 minutes at 37° C. was allowed for tissue equilibration. In paired experiments, one tissue served as (vehicle) ‘control’, and the other as omeprazole-treated ‘experimental’.
After 30 minutes of tissue equilibration time in Ussing chambers, dibutyrl cyclic AMP (dBcAMP) (Sigma) was added to a final concentration of 1 mM to the serosal fluid chambers to stimulate acid secretion. […] The addition of the isotope marked the beginning of the flux period. 150 μL or 250 μL samples were taken from the serosal fluid compartment (opposite from which the isotope was added) for liquid scintillation counting (LSC). Samples were initially taken at 30 minute intervals for 90 minutes for the ^14C-phenytoin flux or at 15 minute intervals for 75 minutes for the ^3H-digoxin flux to establish the basal permeability rate (ρmoles/min/cm^2) across the tissue. 200 μM omeprazole (Sigma) (in DMSO) was then added to the mucosal and serosal sides of one chamber and an equivalent amount of DMSO (Sigma) was also added to both sides of the control chamber. Another series of serosal fluid samples were taken for LSC at 15 or 30 minute intervals for the remaining 60 minutes of ^3H-digoxin or ^14C-phenytoin flux experiments, respectfully, to determine flux rate of the radiolabeled drugs after omeprazole addition. In all cases of fluid sampling for liquid scintillation counting, an equal amount of fresh buffered saline was added back to the serosal side to prevent hydrostatic gradients from developing across the tissue. The flux of each isotope (ρmole/min/cm^2) was determined by calculating the linear regression slope of the graph of cpm versus time, and converting cpm to picomoles after determining the specific activity of the drug in the mucosal fluid.
To observe if the omeprazole-induced leak allows for permeation of certain small molecule drugs, ^3H-digoxin was added to the mucosal fluid compartment and saline samples were taken at 15 minute intervals from the serosal fluid compartments for a 135-minute flux period. Omeprazole and/or DMSO were added to their respective tissues 75 minutes after the addition of the isotope. Radioactivity present in the serosal fluid compartment was measured as a function of time before and after the addition of omeprazole or DMSO.

[3] = tested on: first-time-presenting GERD patients; assay: Sucrose permeability test before and at the end of an 8 week course of esomeprazole (NEXIUM); assay type: in vivo, human
Protocol: Patients with GERD were recruited from a primary care practice, to which they were presenting for the first time with their disease. […] With the exception of their GERD, these patients met the above criteria at the time of their recruitment, and were recruited in a similar manner. […] An 8 hour overnight urine sample was collected in a container with 5 ml of 10% thymol in isopropanol as antimicrobial preservative. A courier service picked up urine containers at the patient's home and delivered them to the research laboratory. Total urine volume and refractive index were measured and recorded. […] This amount of sucrose equates to the amount of sucrose which leaked from the upper GI lumen. The next study posed the question of whether PPI therapy would improve barrier function in the upper GI tract by allowing for reduction of mucosal inflammation and damage ensuing from esophagitis and gastritis. An early hypothesis was that PPI therapy would improve barrier function in the upper GI tract of first-time-presenting GERD patients, by allowing for reduction of mucosal inflammation and damage ensuing from any esophagitis or gastritis. […] As previously mentioned, this was in contrast to an earlier study (Mullin et al. (2006) Dig. Dis. Sci., 51:2326-36) which utilized GERD patients who had been previously diagnosed and under the care of a gastroenterologist. […] A 4 week follow up check was performed on all patients, and all reported significant symptom improvement with mild if any side effects.

healthy controls [4] = assay: Sucrose permeability test, time course and reversibility of the esomeprazole-induced leak; assay type: in vivo, human; settings: for durations with statistically significant elevation of sucrose leak: esomeprazole 40 mg once/day for 1, 2, 3, 5, 7 or 9 days, P<0.05
Protocol: Healthy controls were recruited without regard to gender or ethnicity, from an age range of 18-80. Their exclusion criteria were no prior gastrointestinal surgery and no current gastrointestinal disease. Because of the nature of the permeability test being used, diabetics and those with renal insufficiency were likewise excluded. Those participating did so only after personally signing an informed consent that was approved prior by the Lankenau Hospital Institutional Review Board. […] An 8 hour overnight urine sample was collected in a container with 5 ml of 10% thymol in isopropanol as antimicrobial preservative. A courier service picked up urine containers at the patient's home and delivered them to the research laboratory. Total urine volume and refractive index were measured and recorded. […] This amount of sucrose equates to the amount of sucrose which leaked from the upper GI lumen. The next study was begun to reduce the (disease) variables that may be at play in working with a GERD population and simultaneously assess the time course with which a PPI leak may establish. As described above, a volunteer group of healthy controls without any active GI disease or prior surgeries was recruited. Volunteers were randomly assigned to duration groups of 1, 2, 3, 5, 7 or 9 days. […] As in FIG. 2, a rising bar indicates greater leak in the second test, a falling bar indicates a lower leak at the second test. […] However the average leak of the second test was greater than the first by the second day and then consistently climbed further out through the nine days. […] The figure gives the average leak of the first (pre esomeprazole) test, the second test and the third (4 day post-esomeprazole) test. Although the second test is statistically different from the first or the third (P<0.01), the third test is not statistically different from the first, evidencing the relative rapid reversibility of the leak phenomenon.

[5] = tested on: rat gastric corpus mucosa; assay: Acid secretion (mucosal fluid pH) of dB-cAMP stimulated tissue in Ussing chambers; settings: ex vivo addition; 200 μM omeprazole, 200 μM lansoprazole, 100 μM esomeprazole
Protocol: Water-jacketed reservoirs maintained chamber saline at 37° C.
In order to confirm stimulation of acid secretion by secretagogue addition and to verify the efficacy of the PPI, mucosal fluid compartment pH was recorded at intervals throughout the experiment with a manual electrode (Denver Instruments, Denver, Colo.). Ag/AgCl voltage and current electrodes were used to measure PD (potential difference) and ISC (short circuit current) approximately every five minutes for the duration of the experiment, as previously described (Hameed et al. (2004) Dig. Dis. Sci., 49:1381-1386), using two single-channel current/voltage clamps (McGrath Research and Technology). Ohm's Law was used to calculate transepithelial electrical resistance across the tissue.
Mucosal and serosal saline pH measurements were taken at approximately five minute intervals using a manual electrode (Denver Instruments) to ensure that the tissue was secreting acid. Mucosal pH readings were also taken before and after the addition of omeprazole to document the action of omeprazole on inhibiting acid secretion. Tissue viability was confirmed at the end of each experiment by tissue exposure to 10 mM amiloride in the mucosal fluid compartment in order to inhibit short circuit current.

healthy controls [6] = assay: Sucrose leak test before and after five days of omeprazole or famotidine; assay type: in vivo, human
Protocol: An 8 hour overnight urine sample was collected in a container with 5 ml of 10% thymol in isopropanol as antimicrobial preservative. A courier service picked up urine containers at the patient's home and delivered them to the research laboratory. Total urine volume and refractive index were measured and recorded. […] This amount of sucrose equates to the amount of sucrose which leaked from the upper GI lumen.
H-2 blockers such as PEPCID® (famotidine) also cause a GI leak. The instant study was first performed with 20 subjects, all healthy controls. Randomly 10 were put on PPIs (20 mg of omeprazole), 10 on H-2 blockers (40 mg of famotidine). These amounts are standard for acid suppression therapy. […] They were given doses of these drugs in the morning for five days. A sucrose leak test was done the night of the fifth and last day.
Therefore, a second H-2 blocker study was performed looking at leak in an n=5 group but doing evening doses of famotidine and maintaining the other aspects of the above study, with the post H-2 blocker leak test performed again the night of the 5th dose, but now only with a 4-6 hours after the 5th and final dose.

[7] = 0.1 mM 14C-labeled probe, after 200 μM omeprazole

OC[C@H]1O[C@@](CO)(O[C@H]2O[C@H](CO)[C@@H](O)[C@H](O)[C@H]2O)[C@@H](O)[C@@H]1O [Sucrose]
Post-Omeorazole transmucosal flux [1, 7]: 24.19 +/− 4.67 ρmoles/min/cm^2
Pre-Omeorazole transmucosal flux ([1]; 0.1 mM 14C-labeled probe): 11.71 +/− 3.39 ρmoles/min/cm^2

OC[C@@H](O)[C@@H](O)[C@H](O)[C@H](O)CO [[D]-Mannitol]
% Increase in Flux [1, 7]: 68.72% and 68.72 +/− 8.32%
Post-Omeorazole transmucosal flux [1, 7]: 37.81 +/− 1.32 ρmoles/min/cm^2
Pre-Omeorazole transmucosal flux ([1]; 0.1 mM 14C-labeled probe): 22.45 +/− 0.61 ρmoles/min/cm^2
% Increase in Flux After Omeprazole ([2]; 200 μM omeprazole): 68.7% ± 8.4%
Post-Omeprazole Flux Value ([2]; after 200 μM omeprazole, corrected by TLC): 31.6 ± 3.9 ρmole/min/cm^2
Pre-Omeprazole Flux Value ([2]; before 200 μM omeprazole, 3 experiments): 21.2 ± 5.3 ρmole/min/cm^2
% Increase in Flux After DMSO ([2]; vehicle control tissue): 23.0% ± 15.3%
Post-DMSO Flux Value ([2]; vehicle control tissue, corrected by TLC): 27.2 ± 2.4 ρmole/min/cm^2
Pre-DMSO Flux Value ([2]; vehicle control tissue, mean ± SEM, 3 experiments): 22.7 ± 3.3 ρmole/min/cm^2

COc1ccc2nc([S@@+]([O-])Cc3ncc(C)c(OC)c3C)[nH]c2c1 [esomeprazole]
average initial sucrose leak ([3]; before esomeprazole, 26 patients, mean, SEM): 72 mg
average initial leak, all patients ([3]; before esomeprazole, all 37 patients): 179 mg
patients whose post-NEXIUM sucrose leak was smaller ([3]; end of 8 week course vs before): 4 of 25
patients whose post-NEXIUM sucrose leak was greater ([3]; end of 8 week course vs before, total sucrose in overnight urine): 21 of 26
patients with increased leak above the 200 mg threshold level ([3]; end of 8 week esomeprazole 40 mg/day): 14 of 21
mean final sucrose leak ([3]; end of 8 week esomeprazole 40 mg/day, 26 patients, mean, SEM): 325 mg
final leak, all patients ([3]; end of 8 week esomeprazole 40 mg/day, all 37 patients): 307 mg
sucrose leak in third test (reversibility) (healthy controls [4]; 4 days after finishing 5, 7 or 9 day esomeprazole course, n=9): decreases to near baseline
leak in second test greater than first (pre esomeprazole) test, average (healthy controls [4]; day 9 of esomeprazole 40 mg once/day): ~400 mg
durations with statistically significant elevation of sucrose leak (healthy controls [4]): fifth day
durations with statistically significant elevation of sucrose leak (healthy controls [4]; listed as NEXIUM®): 5, 7 and 9 day durations
effect on acid secretion (rate of mucosal acidification) [5]: inhibited acid secretion
% Increase in Flux of 14C-[D]-mannitol ([1]; 100 μM PPI): 101.62%
% Increase in Flux of 14C-[D]-mannitol ([1]; 100 μM PPI, listed as Esomeprazole): 101.62 +/− 10.04%

NC(N)=Nc1nc(CSCCC(N)=NS(N)(=O)=O)cs1 [famotidine]
pre-med sucrose leak (healthy controls [6]; baseline before medication, n=10 per group, SEM): 50 mg
pre H-2 blocker leak, second study (healthy controls [6]; baseline, n=5, SEM): 46 mg
post H-2 blocker leak, second study (healthy controls [6]; evening doses of famotidine, test 4-6 hours after 5th dose, n=5, P=0.03): 132 mg
post med sucrose leak (healthy controls [6]; morning doses for five days (20 mg omeprazole or 40 mg famotidine), test night of fifth day, n=10): 110 mg

Cc1c(OCC(F)(F)F)ccnc1C[S+]([O-])c1nc2ccccc2[nH]1 (centres unmarked) [lansoprazole, 2-(((3-methyl-4-(2,2,2-trifluoro-ethoxy)-2-pyridinyl)methyl)sulfinyl)-1H benzimidazole]
effect on acid secretion (rate of mucosal acidification) [5]: inhibited acid secretion
% Increase in Flux of 14C-[D]-mannitol ([1]; 200 μM PPI): 83.35%
% Increase in Flux of 14C-[D]-mannitol ([1]; 200 μM PPI, listed as Lansoprazole): 83.35 +/− 20.71%
